Tests used:
[1] = tested on: stable HCV 1a RLuc replicon cells (genotype 1a H77 replicon); assay: HCV genotype 1a RLuc replicon reporter assay; format: cell-based; details: Hepatitis C virus; stable genotype 1a H77 RLuc replicon cells, 72 hours
[2] = tested on: stable HCV 2a JFH-1 Rluc replicon cells (L31 present in NS5A); assay: HCV genotype 2a JFH-1 RLuc replicon reporter assay; format: cell-based; details: Hepatitis C virus, 72 h, read-out: 2a JFH (nM)
[3] = tested on: NS5A chimeric genotype 2a JFH-1 replicon with genotype 2a J6 strain NS5A gene (M31); assay: HCV genotype 2a J6 NS5A chimeric replicon assay, transient (t); format: cell-based; details: Hepatitis C virus, 72 h, read-out: 2a J6 (t) (nM)
[4] = tested on: NS5A chimeric genotype 2a JFH-1 replicon with genotype 2b MD2b-1 strain NS5A gene (M31); assay: HCV genotype 2b NS5A chimeric replicon assay, transient (t); format: cell-based; details: Hepatitis C virus, 72 h, read-out: 2b (t) (nM)
Procedure, shortened: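 Stable 1b Con1 RLuc replicon cells, or Huh-Lunet cells transiently transfected with chimeric replicons (Con1 backbone carrying 3a S52 or 4a ED43 NS5A; JFH-1 backbone carrying 2b MD2b-1 NS5A, M31), treated with 3-fold dilutions for 72 h. Renilla luciferase read after lysis; EC50 by non-linear regression.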

[5] = IV and PO single dose pharmacokinetic studies in SD rats; format: in vivo; details: Sprague-Dawley, rat, plasma, male SD rats, IV infusion 1 mg/kg, oral gavage 2 mg/kg, read-out: Rat % F
Description: IV and PO Single Dose Pharmacokinetic Studies in SD Rats: The pharmacokinetics of selected compounds was characterized in male Sprague-Dawley (SD) rats (250-300 g). In this study, two groups of naïve purebred SD rats (N=3 per group, fasted over night) received the selected compound either as an intravenous (IV) infusion (1 mg/kg over 30 minutes) via the jugular vein or by oral gavage (2 mg/kg). The intravenous (IV) dosing vehicle was 5% ethanol, 35% polyethylene glycol 400 (PEG 400) and 60% water pH 2.0. The oral dosing vehicle was 5% ethanol, 55% PEG 400 and 40% citrate buffer pH 2.2.
Serial blood samples (approximately 0.3 mL each) were collected from jugular vein or other suitable vein at specified time points. For the IV infusion group, the blood samples were collected predose and at 0.25, 0.48, 0.58, 0.75, 1.5, 3, 6, 8, 12 and 24 hours after the start of infusion. For the oral group, the blood samples were collected predose and at 0.25, 0.50, 1, 2, 4, 6, 8, 12 and 24 hours after dosing. The blood samples were collected into Vacutainer™ tubes containing EDTA-K3 as the anti-coagulant and were centrifuged at approximately 4° C. to obtain plasma. The plasma samples were stored at −20° C. until analysis by LC/MS/MS.
A bioanalytical method utilizing high performance liquid chromatography coupled to tandem mass spectrometry (LC/MS/MS) was developed for analysis of the selected compound in rat plasma. Detection was performed using selected reaction monitoring (SRM); Ions representing the precursor (M+H)^+ species was selected in quadrupole 1 (Q1) and collided with argon gas in the collision cell (Q2) to generate specific product ion, which was subsequently monitored by quadrupole 3 (Q3). Standard curve and quality control samples were prepared in male rat plasma and processed in the same way as the test samples to generate quantitative data.
Pharmacokinetic parameters were generated using non-compartmental pharmacokinetic analysis (Phoenix WinNonlin, version 6.3). Values below the lower limit of quantification (LLOQ) were assigned a value of zero if predose and treated as missing thereafter. Area under the curve (AUC) was calculated using the linear trapezoidal rule. The oral bioavailability (% F) was determined by comparison of the area under the curve (AUC) of the compound and/or a metabolite generated in plasma following oral administration to that generated following intravenous administration.

[6] = tested on: L31V/Y93H in genotype 1b NS5A replicon; assay: Resistance mutant replicon assay, genotype 1b NS5A L31V/Y93H; format: cell-based, HCV; details: Hepatitis C virus, read-out: 1b L31V/Y93H (nM)
Procedure, shortened: (§1)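 Transiently transfected Huh-7-derived cured-51 cells carrying site-directed NS5A mutant Pi-RLuc replicons are exposed to compound for 72 h. Luciferase output is fitted by non-linear regression to give EC50.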

[7] = tested on: Q30E in genotype 1a NS5A replicon; assay: Resistance mutant replicon assay, genotype 1a NS5A Q30E; format: cell-based, HCV; details: Hepatitis C virus, read-out: 1a Q30E (nM)
Procedure, shortened: as §1

[8] = tested on: Y93H in genotype 1a NS5A replicon; assay: Resistance mutant replicon assay, genotype 1a NS5A Y93H; format: cell-based, HCV; details: Hepatitis C virus, read-out: 1a Y93H (nM)
Procedure, shortened: as §1

[9] = tested on: Y93N in genotype 1a NS5A replicon; assay: Resistance mutant replicon assay, genotype 1a NS5A Y93N; format: cell-based, HCV; details: Hepatitis C virus, read-out: 1a Y93N (nM)
Procedure, shortened: as §1

[10] = tested on: Y93H in genotype 3a NS5A replicon; assay: Resistance mutant replicon assay, genotype 3a NS5A Y93H; format: cell-based, HCV; details: Hepatitis C virus, read-out: 3a Y93H (nM)
Procedure, shortened: as §1

With `CC[C@H](C)[C@H](NC(=O)OC)C(=O)N1[C@@H](C)CC[C@H]1c1ncc(-c2ccc3c(c2)COc2cc4c(ccc5nc([C@@H]6CC[C@H](C)N6C(=O)[C@@H](NC(=O)OC)C6C[C@@H](C)O[C@H](C)C6)[nH]c54)cc2-3)[nH]1` (stereo partly drawn) [Example AA, Methyl {(2S,3S)-1-[(2S,5S)-2-(5-{2-[(2S,5S)-1-{(2S)-2-[(2R,6R)-2,6-dimethyltetrahydro-2H-pyran-4-yl]-2-[(methoxycarbonyl)amino]acetyl}-5-methylpyrrolidin-2-yl]-1,11-dihydroisochromeno[4′,3′:6,7]naphtho[1,2-d]imidazol-9-yl}-1H-imidazol-2-yl)-5-methylpyrrolidin-1-yl]-3-methyl-1-oxopentan-2-yl}carbamate] the EC50 [1] was 0.016 nM, the EC50 [2] was 0.011 nM and the EC50 [3] was 0.006 nM. It also gave an EC50 [4] of 0.014 nM, a bioavailability [5] of 28.1% and an EC50 [6] of 0.498 nM. For the same molecule, the EC50 [7] was 0.145 nM, the EC50 [8] was 0.322 nM and the EC50 [9] was 0.57 nM. It also gave an EC50 [10] of 0.544 nM.
`COC(=O)N[C@H](C(=O)N1[C@@H](C)CC[C@H]1c1nc2ccc3cc4c(cc3c2[nH]1)OCc1cc(-c2cnc([C@@H]3CC[C@H](C)N3C(=O)[C@@H](NC(=O)OC)C3C[C@@H](C)O[C@H](C)C3)[nH]2)ccc1-4)C(C)C` (stereo partly drawn) [Example AS] showed an EC50 [1] of 0.026 nM, an EC50 [2] of 0.028 nM and an EC50 [3] of 0.015 nM. For the same molecule, the EC50 [4] was 0.026 nM, the bioavailability [5] was 17.4% and the EC50 [6] was 2.03 nM. The EC50 [7] was 0.115 nM, the EC50 [8] was 0.148 nM and the EC50 [9] was 0.325 nM. For the same molecule, the EC50 [10] was 0.732 nM.
With `CC[C@H](C)[C@H](NC(=O)OC)C(=O)N1[C@@H](C)CC[C@H]1c1nc2ccc3cc4c(cc3c2[nH]1)OCc1cc(-c2cnc([C@@H]3CC[C@H](C)N3C(=O)[C@@H](NC(=O)OC)C3CCOCC3)[nH]2)ccc1-4` [Comp 12, reference compound] the EC50 [1] was 0.013 nM, the EC50 [2] was 0.009 nM and the EC50 [3] was 0.032 nM. It also gave a bioavailability [5] of 5.64%, an EC50 [6] of 0.097 nM and an EC50 [8] of 1.24 nM. The EC50 [9] was 1.38 nM and the EC50 [10] was 17.7 nM.
For `COC(=O)N[C@H](C(=O)N1[C@@H](C)CC[C@H]1c1ncc(-c2ccc3c(c2)COc2cc4c(ccc5nc([C@@H]6CC[C@H](C)N6C(=O)[C@@H](NC(=O)OC)[C@H]6C[C@@H](C)O[C@@H](C)C6)[nH]c54)cc2-3)[nH]1)C(C)C` [Example AM, Methyl {(2S)-1-[(2S,5S)-2-(5-{2-[(2S,5S)-1-{(2S)-2-[(2R,6S)-2,6-dimethyltetrahydro-2H-pyran-4-yl]-2-[(methoxycarbonyl)amino]acetyl}-5-methylpyrrolidin-2-yl]-1,11-dihydroisochromeno[4′,3′:6,7]naphtho[1,2-d]imidazol-9-yl}-1H-imidazol-2-yl)-5-methylpyrrolidin-1-yl]-3-methyl-1-oxobutan-2-yl}carbamate], the EC50 [1] was 0.009 nM, the EC50 [2] was 0.005 nM and the EC50 [3] was 0.008 nM. It also gave an EC50 [4] of 0.008 nM, a bioavailability [5] of 21.9% and an EC50 [6] of 11.6 nM. The EC50 [7] was 1.21 nM, the EC50 [9] was 4.65 nM and the EC50 [10] was 8.06 nM.
Work on `COC(=O)N[C@H](C(=O)N1[C@@H](C)CC[C@H]1c1nc2ccc3cc4c(cc3c2[nH]1)OCc1cc(-c2cnc([C@@H]3CC[C@H](C)N3C(=O)[C@@H](NC(=O)OC)[C@H]3C[C@@H](C)O[C@@H](C)C3)[nH]2)ccc1-4)C(C)C` [Example AO, Methyl {(2S)-1-[(2S,5S)-2-(9-{2-[(2S,5S)-1-{(2S)-2-[(2R,6S)-2,6-dimethyltetrahydro-2H-pyran-4-yl]-2-[(methoxycarbonyl)amino]acetyl}-5-methylpyrrolidin-2-yl]-1H-imidazol-5-yl}-1,11-dihydroisochromeno[4′,3′:6,7]naphtho[1,2-d]imidazol-2-yl)-5-methylpyrrolidin-1-yl]-3-methyl-1-oxobutan-2-yl}carbamate] yielded an EC50 [1] of 0.012 nM, an EC50 [2] of 0.008 nM and an EC50 [3] of 0.017 nM. The EC50 [4] was 0.015 nM, the bioavailability [5] was 50.3% and the EC50 [6] was 17.5 nM. It also gave an EC50 [7] of 1.78 nM, an EC50 [9] of 9.03 nM and an EC50 [10] of 9.06 nM.
Work on `COC[C@H]1C[C@@H](c2ncc(-c3ccc4c(c3)COc3cc5c(ccc6nc([C@@H]7CC[C@H](C)N7C(=O)[C@@H](NC(=O)OC)C7C[C@@H](C)O[C@H](C)C7)[nH]c65)cc3-4)[nH]2)N(C(=O)[C@@H](NC(=O)OC)C2C[C@@H](C)O[C@H](C)C2)C1` (stereo partly drawn) [Example BH, Methyl {(1S)-1-[(2R,6R)-2,6-dimethyltetrahydro-2H-pyran-4-yl]-2-[(2S,5S)-2-(9-{2-[(2S,4S)-1-{(2S)-2-[(2R,6R)-2,6-dimethyltetrahydro-2H-pyran-4-yl]-2-[(methoxycarbonyl)amino]acetyl}-4-(methoxymethyl)pyrrolidin-2-yl]-1H-imidazol-5-yl}-1,11-dihydroisochromeno[4′,3′:6,7]naphtho[1,2-d]imidazol-2-yl)-5-methylpyrrolidin-1-yl]-2-oxoethyl}carbamate] yielded an EC50 [1] of 0.053 nM, an EC50 [2] of 0.013 nM and an EC50 [3] of 0.055 nM. For the same molecule, the bioavailability [5] was 2.7%, the EC50 [8] was 0.04 nM and the EC50 [9] was 0.082 nM. For the same molecule, the EC50 [10] was 0.612 nM.
`COC(=O)N[C@H](C(=O)N1[C@@H](C)CC[C@H]1c1ncc(-c2ccc3c(c2)COc2cc4c(ccc5nc([C@@H]6CC[C@H](C)N6C(=O)[C@@H](NC(=O)OC)C6C[C@@H](C)O[C@H](C)C6)[nH]c54)cc2-3)[nH]1)C1C[C@@H](C)O[C@H](C)C1` (stereo partly drawn) [Example AU, Methyl {(1S)-1-[(2R,6R)-2,6-dimethyltetrahydro-2H-pyran-4-yl]-2-[(2S,5S)-2-(5-{2-[(2S,5S)-1-{(2S)-2-[(2R,6R)-2,6-dimethyltetrahydro-2H-pyran-4-yl]-2-[(methoxycarbonyl)amino]acetyl}-5-methylpyrrolidin-2-yl]-1,11-dihydroisochromeno[4′,3′:6,7]naphtho[1,2-d]imidazol-9-yl}-1H-imidazol-2-yl)-5-methylpyrrolidin-1-yl]-2-oxoethyl}carbamate] gave an EC50 [1] of 0.029 nM, an EC50 [2] of 0.013 nM and an EC50 [3] of 0.008 nM. The EC50 [4] was 0.017 nM, the bioavailability [5] was 16.4% and the EC50 [6] was 0.059 nM. For the same molecule, the EC50 [7] was 0.042 nM, the EC50 [8] was 0.026 nM and the EC50 [9] was 0.089 nM. It also gave an EC50 [10] of 0.13 nM.
`CC[C@H](C)[C@H](NC(=O)OC)C(=O)N1[C@@H](C)CC[C@H]1c1ncc(-c2ccc3c(c2)COc2cc4c(ccc5nc([C@@H]6CC[C@H](C)N6C(=O)[C@@H](NC(=O)OC)C6CCOCC6)[nH]c54)cc2-3)[nH]1` [Comp 4, reference compound] showed an EC50 [1] of 0.023 nM, an EC50 [2] of 0.018 nM and an EC50 [3] of 0.026 nM. The bioavailability [5] was 22.1%, the EC50 [7] was 0.432 nM and the EC50 [8] was 0.978 nM. The EC50 [9] was 1.06 nM and the EC50 [10] was 0.695 nM.
Work on `CC[C@H]1CC[C@@H](c2nc3ccc4cc5c(cc4c3[nH]2)OCc2cc(-c3cnc([C@@H]4CC[C@H](C)N4C(=O)[C@@H](NC(=O)OC)C(C)C)[nH]3)ccc2-5)N1C(=O)[C@@H](NC(=O)OC)C1CCOCC1` [Comp 3, reference compound] yielded an EC50 [1] of 0.021 nM, an EC50 [2] of 0.019 nM and an EC50 [3] of 0.061 nM. It also gave a bioavailability [5] of 46.6%, an EC50 [7] of 0.526 nM and an EC50 [8] of 2.54 nM. The EC50 [10] was 14.1 nM.

Reference: patent US20160362416A1, “ANTIVIRAL COMPOUNDS” (Gilead Sciences, Inc., priority 2012, published 2016)
